# Source: patent US11578056B2, “Solid forms comprising (S)-2-(2,6-dioxopiperidin-3-yl)-4-((2-fluoro-4-((3-morpholinoazetidin-1-yl)methyl)benzyl)amino)isoindoline-1,3-dione and salts thereof, and compositions comprising and methods of using the same” (Celgene Corporation, priority 2019, dated 2023)
# How the values were obtained:
# Assay in all cases: Hematological cell line viability/apoptosis flow cytometry assay
# Format in all cases: cell-based
# VAL cell line = settings: VAL (DLBCL), 120 h
# Description: (§1) Cell Proliferation and Viability Assay Using Hematological Cell Lines: The following exemplary anti-proliferative assay uses exemplary hematological cell lines in the following. The in vitro growth inhibitory activity of Compound 1 described herein was evaluated using a 384-well flow cytometry assay.
# (§2) The cell lines were plated in 384-well flat bottom plates and assessed with increasing concentrations of compound ranging from 0.00015 to 10 μM or dimethyl sulfoxide (DMSO) control. The final concentration of DMSO was 0.1% (v/v). Following the addition of Compound 1 or DMSO and incubation for 120 hours, cell number and cell death were analyzed by flow cytometry (Attune®, Thermo Fisher) using Annexin V and the live-cell impermeant DNA dye, DRAQ7. Phosphatidylserine translocates from the inner layer to the outer layer of the cell membrane early in apoptosis and Annexin V binds to the exposed phosphatidylserine found on the surface of an apoptotic cell. The vital dye DRAQ7 is excluded by intact live cells and only stains cells that have died as a result of apoptosis or necrosis.
# (§3) Flow cytometry data analysis was then performed using the Flow Jo_v10 software to determine the number of viable cells (Annexin V and DRAQ7 double negative staining cells) and percentage of apoptotic cells (Annexin V positive cells) for each condition. The live cell count for every concentration was normalized to the DMSO control (considered as 100%) to calculate the percentage of viable cells remaining after treatment and graphed using GraphPad Prism 7.03. The IC50 (50% inhibitory concentration) and Emax (maximum efficacy achieved) values were then calculated by performing nonlinear regression curve fitting using log(inhibitor) vs. normalized response—variable slope analysis on GraphPad Prism 7.03. Area under the curve (AUC) was calculated by performing area under curve analysis on GraphPad Prism 7.03. Similarly, for apoptosis analysis, the percentage of apoptosis combining both “early” (Annexin V positive and DRAQ7 negative) and “late” apoptosis (Annexin V and DRAQ7 positive) cell gates relative to DMSO was graphed using GraphPad Prism 7.03. The AUC, EC50 (concentration of compound that produces half-maximal apoptosis response) and Ymax (maximal percentage of apoptosis achieved) values from apoptosis curves were calculated by performing area under curve analysis and nonlinear regression curve fitting using log(agonist) vs. normalized response—Variable slope analysis on GraphPad Prism 7.03.
# (§4) Dose-response proliferation curves for the panel of hematological cell lines and non-linear curve-fit regression were used to determine IC50, AUC, and Emax for % viable cells (Emax for viability varies between 100 at low doses and 0 at high doses, which corresponds to inhibition of all viable cells), and dose-response apoptosis curves were used to determine the EC50, AUC, and Ymax for % apoptosis (Ymax for apoptosis varies from 0 at low doses and 100 at higher doses which corresponds to death of all cells). Tumor cells were exposed to serial dilutions (0.00015 to 10 μM) of Compound 1 or dimethyl sulfoxide (DMSO) control for 5 days. Viability and apoptosis for all cell lines was determined by Annexin V/7-aminoactinomycin D (7-AAD) flow cytometry.
# CI cell line = settings: CI (CLL), 120 h
# Description: as §1, §2, §3, §4
# L-591 cell line = settings: L-591 (HL), 120 h
# Description: as §1, §2, §3, §4
# SVSL cell line = settings: SVSL (MZL, SMZL), 120 h
# Description: as §1, §2, §3, §4
# WILL-2 cell line = settings: WILL-2 (DLBCL), 120 h
# Description: as §1, §2, §3, §4
# NU-DHL-1 cell line = settings: NU-DHL-1 (DLBCL GCB); 120 h
# Description: as §1, §2, §3, §4
# Pfeiffer cell line = settings: Pfeiffer (DLBCL GCB); 120 h
# Description: as §1, §2, §3, §4
# SU-DHL-2 cell line = settings: SU-DHL-2 (DLBCL ABC); 120 h
# Description: as §1, §2, §3, §4
# SU-DHL-8 cell line = settings: SU-DHL-8 (DLBCL GCB); 120 h
# Description: as §1, §2, §3, §4
# WA-C3-CD5+ cell line = settings: WA-C3-CD5+ (CLL), 120 h
# Description: as §1, §2, §3, §4
# SU-DHL-4 cell line = settings: SU-DHL-4 (DLBCL GCB); 120 h
# Description: as §1, §2, §3, §4
# KOPN-8 cell line = settings: KOPN-8 (ALL), 120 h
# Description: as §1, §2, §3, §4
# U-2973 cell line = settings: 120 h
# Description: as §1, §2, §3, §4
# Farage cell line = settings: Farage (DLBCL PMBL); 120 h
# Description: as §1, §2, §3, §4
compound,measurement,setting,value
"O=C1CC[C@H](N2C(=O)c3cccc(NCc4ccc(CN5CC(N6CCOCC6)C5)cc4F)c3C2=O)C(=O)N1 [Compound 1, (S)-2-(2,6-dioxopiperidin-3-yl)-4-((2-fluoro-4-((3-morpholinoazetidin-1-yl)methyl)benzyl)amino)isoindoline-1,3-dione]",% Viable Cells AUC,VAL cell line,14.62
same,% Viable Cells Emax,VAL cell line,0.9632%
same,Apoptosis AUC,VAL cell line,936.7
same,Apoptosis Ymax,VAL cell line,95.68%
same,EC50,VAL cell line,0.605 nM
same,IC50,VAL cell line; read-out: % Viable Cells IC50,0.57 nM
same,% Viable Cells AUC,CI cell line,603.9
same,% Viable Cells Emax,CI cell line,53.58%
same,Apoptosis AUC,CI cell line,123.2
same,Apoptosis Ymax,CI cell line,13.01%
same,EC50,CI cell line,22.9 nM
same,IC50,CI cell line; read-out: % Viable Cells IC50,9700 nM
same,% Viable Cells AUC,L-591 cell line,334.2
same,% Viable Cells Emax,L-591 cell line,34.6%
same,Apoptosis AUC,L-591 cell line,45.59
same,Apoptosis Ymax,L-591 cell line,20.0%
same,EC50,L-591 cell line,1520 nM
same,IC50,L-591 cell line; read-out: % Viable Cells IC50,0.3 nM
same,% Viable Cells AUC,SVSL cell line,368.4
same,% Viable Cells Emax,SVSL cell line,34.07%
same,Apoptosis AUC,SVSL cell line,340.2
same,Apoptosis Ymax,SVSL cell line,35.5%
same,EC50,SVSL cell line,2.84 nM
same,IC50,SVSL cell line; read-out: % Viable Cells IC50,95.2 nM
same,% Viable Cells AUC,WILL-2 cell line,17.1
same,% Viable Cells Emax,WILL-2 cell line,0.03115%
same,Apoptosis AUC,WILL-2 cell line,916.9
same,Apoptosis Ymax,WILL-2 cell line,99.43%
same,EC50,WILL-2 cell line,89.7 nM
same,IC50,WILL-2 cell line; read-out: % Viable Cells IC50,2.36 nM
same,% Viable Cells AUC,NU-DHL-1 cell line,12.37
same,% Viable Cells Emax,NU-DHL-1 cell line,0.4919%
same,Apoptosis AUC,NU-DHL-1 cell line,981.8
same,Apoptosis Ymax,NU-DHL-1 cell line,99.17%
same,% Viable Cells AUC,Pfeiffer cell line,313.5
same,% Viable Cells Emax,Pfeiffer cell line,24.49%
same,Apoptosis AUC,Pfeiffer cell line,493.3
same,Apoptosis Ymax,Pfeiffer cell line,51.82%
same,% Viable Cells AUC,SU-DHL-2 cell line,5.586
same,% Viable Cells Emax,SU-DHL-2 cell line,0.2145%
same,Apoptosis AUC,SU-DHL-2 cell line,928.4
same,Apoptosis Ymax,SU-DHL-2 cell line,95.98%
same,% Viable Cells AUC,SU-DHL-8 cell line,119.5
same,% Viable Cells Emax,SU-DHL-8 cell line,2.081%
same,Apoptosis AUC,SU-DHL-8 cell line,363.2
same,Apoptosis Ymax,SU-DHL-8 cell line,85.44%
same,% Viable Cells AUC,WA-C3-CD5+ cell line,474.8
same,% Viable Cells Emax,WA-C3-CD5+ cell line,44.2%
same,Apoptosis AUC,WA-C3-CD5+ cell line,162.9
same,Apoptosis Ymax,WA-C3-CD5+ cell line,17.47%
same,EC50,WA-C3-CD5+ cell line,52.4 nM
same,IC50,WA-C3-CD5+ cell line; read-out: % Viable Cells IC50,530 nM
same,% Viable Cells AUC,SU-DHL-4 cell line,296.2
same,% Viable Cells Emax,SU-DHL-4 cell line,23.44%
same,Apoptosis AUC,SU-DHL-4 cell line,209
same,Apoptosis Ymax,SU-DHL-4 cell line,25.33%
same,EC50,KOPN-8 cell line; Homo sapiens,726000 nM
same,IC50,"KOPN-8 cell line; Homo sapiens, read-out: % Viable Cells IC50",41.8 nM
same,% Viable Cells AUC,KOPN-8 cell line,490.2
same,% Viable Cells Emax,KOPN-8 cell line,38.3%
same,Apoptosis AUC,KOPN-8 cell line,14.95
same,Apoptosis Ymax,KOPN-8 cell line,5.00%
same,% Viable Cells AUC,U-2973 cell line,853.4
same,% Viable Cells Emax,U-2973 cell line,19.45%
same,Apoptosis AUC,U-2973 cell line,391.9
same,Apoptosis Ymax,U-2973 cell line,60.8%
same,% Viable Cells AUC,Farage cell line,10.16
same,% Viable Cells Emax,Farage cell line,0.7936%
same,Apoptosis AUC,Farage cell line,728.7
same,Apoptosis Ymax,Farage cell line,84.17%
